Results: patent US11420956B2, “Ureas having Androgen Receptor degradation activity and uses thereof” (ACCUTAR BIOTECHNOLOGY INC., priority 2019, dated 2022)
Substitutions are numbered along the chain they refer to.

Columns and labels:
Format in all cases: cell-based
Conditions in all cases: 24 hours after administration
androgen receptor (AR) [1] = test: AR degradation in 22Rv1 cells (Western blot)
Procedure: (§1) LNCAP, VCAP and 22Rv1 cells were plated in 24-well plates at 1.5×10E5 cells/well in the RPMI growth medium containing 10% FBS and 1% Penicillin Streptomycin, and then incubated at 37° C. overnight. The following day, the test compound was administered to the cells by using 1000× compound stock solution prepared in DMSO at various concentrations. After administration of the compound, the cells were then incubated at 37° C. for 24 hours. Upon completion, the cells were washed with PBS and protein was collected in Laemmli sample buffer (1×; VWR International). Proteins in cell lysate were separated by SDS-PAGE and transferred to Odyssey nitrocellulose membranes (Licor) with iblot® dry blotting transfer system (ThermoFisher). Nonspecific binding was blocked by incubating membranes with Intercept Blocking Buffer (Licor) for 1 hour at room temperature with gentle shaking. The membranes were then incubated overnight at 4° C. with Primary antibodies rabbit anti-AR (1:1,000, Cell Signaling, 5153) and mouse anti-GAPDH (1:5,000, Santa Cruz Biotechnology, sc-47724) diluted in Intercept Blocking Buffer containing 0.1% Tween 20. After washing 3 times with TBS-T, the membranes were incubated with IRDye® […] goat anti-mouse IgG (1:20,000, Licor) or IRDye® […] goat anti-rabbit IgG (1:20,000, Licor) for 1 hour. After TBS-T washes, membranes were rinsed in TBS and scanned on Odyssey® CLx Imaging System (Licor). The bands were quantified using Image Studio™ Software (Licor).
(§2) Tables 5 and 6 summarize the androgen receptor (AR) degradative activity of exemplary compounds in LNCAP, VCAP and 22Rv1 cell lines 24 hours after administration. DC50: compound concentration needed for 50% target protein degradation.

androgen receptor (AR) [2] = biological target: T1, androgen receptor (AR) (Homo sapiens, UniProt P10275, T878A); test: AR degradation in LNCAP cells (Western blot)
T1 construct: endogenous in cells; host or cells: LNCAP
T1 sequence (P10275 1-920 T878A): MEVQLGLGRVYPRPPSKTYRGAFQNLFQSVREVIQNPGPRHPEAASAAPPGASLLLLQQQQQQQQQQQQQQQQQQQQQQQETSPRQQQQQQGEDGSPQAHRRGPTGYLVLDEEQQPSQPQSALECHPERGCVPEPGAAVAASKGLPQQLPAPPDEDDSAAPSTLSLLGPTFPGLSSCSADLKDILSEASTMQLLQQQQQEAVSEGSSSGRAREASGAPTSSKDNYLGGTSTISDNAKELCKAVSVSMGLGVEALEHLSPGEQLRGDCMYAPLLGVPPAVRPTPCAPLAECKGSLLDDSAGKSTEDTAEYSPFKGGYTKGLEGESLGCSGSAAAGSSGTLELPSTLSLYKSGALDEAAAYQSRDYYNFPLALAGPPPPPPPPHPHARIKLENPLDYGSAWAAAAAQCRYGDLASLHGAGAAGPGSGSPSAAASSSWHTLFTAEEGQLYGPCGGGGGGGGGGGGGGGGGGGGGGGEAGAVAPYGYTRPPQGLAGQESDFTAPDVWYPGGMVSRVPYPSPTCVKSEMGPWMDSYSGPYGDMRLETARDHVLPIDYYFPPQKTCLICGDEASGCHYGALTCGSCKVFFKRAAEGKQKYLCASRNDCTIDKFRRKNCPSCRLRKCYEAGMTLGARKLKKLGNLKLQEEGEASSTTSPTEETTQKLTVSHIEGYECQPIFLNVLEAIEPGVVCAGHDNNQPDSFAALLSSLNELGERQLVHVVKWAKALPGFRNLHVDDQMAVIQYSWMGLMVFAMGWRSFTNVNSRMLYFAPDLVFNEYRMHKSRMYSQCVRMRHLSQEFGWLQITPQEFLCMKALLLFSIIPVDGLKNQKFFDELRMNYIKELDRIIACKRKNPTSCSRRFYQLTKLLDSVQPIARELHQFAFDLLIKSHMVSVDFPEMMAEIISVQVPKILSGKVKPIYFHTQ
How it was run: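 Cells plated in RPMI with 10% FBS overnight, then treated with compound at various concentrations (from 1000× DMSO stocks) for 24 h at 37 °C. AR level measured by Western blot with GAPDH as loading control, infrared-fluorescent detection and band quantification; DC50 is concentration giving 50% AR degradation.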

androgen receptor (AR) [3] = biological target: T2, androgen receptor (AR) (Homo sapiens, UniProt P10275); test: AR degradation in VCAP cells (Western blot)
T2 construct: endogenous in cells; host or cells: VCAP
T2 sequence (P10275 1-920): T1 sequence (P10275 1-920 T878A) with A878T
Procedure: as §1, §2

Compound	DC50 (androgen receptor (AR) [1])	DC50 (androgen receptor (AR) [2])	DC50 (androgen receptor (AR) [3])
C[C@@H]1CN(c2ccc(C#N)c(Cl)c2)[C@@H](C)CN1C(=O)Nc1cnc(N2CCC(CN3CCN(c4ccc5c(c4)C(=O)N(C4CCC(=O)NC4=O)C5=O)CC3)CC2)nc1 (stereo partly drawn) [Compound 1-20, (2R,5S)-4-(3-chloro-4-cyanophenyl)-N-(2-(4-((4-(2-(2,6-dioxopiperidin-3-yl)-1,3-dioxoisoindolin-5-yl)piperazin-1-yl)methyl)piperidin-1-yl)pyrimidin-5-yl)-2,5-dimethylpiperazine-1-carboxamide]	≤ 10 nM	≤ 10 nM	–
C[C@@H]1CN(c2ccc(C#N)c(Cl)c2)[C@@H](C)CN1C(=O)Nc1cnc(N2CCC(CN3CCN(c4ccc5c(c4)C(=O)N(C4CCC(=O)NC4=O)C5=O)CC3)CC2)nc1 (stereo partly drawn) [Compound 1-21, (2R,5S)-4-(3-chloro-4-cyanophenyl)-N-(2-(4-((4-(2-(2,6-dioxopiperidin-3-yl)-1,3-dioxoisoindolin-5-yl)piperazin-1-yl)methyl)piperidin-1-yl)pyrimidin-5-yl)-2,5-dimethylpiperazine-1-carboxamide]	–	≤ 10 nM	≤ 10 nM
C[C@@H]1CN(C(=O)Nc2cnc(N3CCC(CN4CCN(c5ccc6c(c5)C(=O)N(C5CCC(=O)NC5=O)C6=O)CC4)CC3)nc2)[C@@H](C)CN1c1ccc(C#N)c(Cl)c1 (stereo partly drawn) [Compound 1-22, (2S,5R)-4-(3-chloro-4-cyanophenyl)-N-(2-(4-((4-(2-(2,6-dioxopiperidin-3-yl)-1,3-dioxoisoindolin-5-yl)piperazin-1-yl)methyl)piperidin-1-yl)pyrimidin-5-yl)-2,5-dimethylpiperazine-1-carboxamide]	–	> 100 nM	> 100 nM
COc1cc(N2C[C@@H](C)N(C(=O)Nc3ccc(N4CCC(CN5CCN(c6ccc7c(c6)C(=O)N(C6CCC(=O)NC6=O)C7=O)CC5)CC4)nc3)C[C@@H]2C)ccc1C#N (stereo partly drawn) [Compound 1-26, (2R,5S)-4-(4-cyano-3-methoxyphenyl)-N-(6-(4-((4-(2-(2,6-dioxopiperidin-3-yl)-1,3-dioxoisoindolin-5-yl)piperazin-1-yl)methyl)piperidin-1-yl)pyridin-3-yl)-2,5-dimethylpiperazine-1-carboxamide]	–	≤ 10 nM	≤ 10 nM
COc1cc(N2C[C@@H](C)N(C(=O)Nc3cnc(N4CCC(CN5CCN(c6ccc7c(c6)C(=O)N(C6CCC(=O)NC6=O)C7=O)CC5)CC4)nc3)C[C@@H]2C)ccc1C#N (stereo partly drawn) [Compound 1-27, (2R,5S)-4-(4-cyano-3-methoxyphenyl)-N-(2-(4-((4-(2-(2,6-dioxopiperidin-3-yl)-1,3-dioxoisoindolin-5-yl)piperazin-1-yl)methyl)piperidin-1-yl)pyrimidin-5-yl)-2,5-dimethylpiperazine-1-carboxamide]	–	≤ 10 nM	≤ 10 nM
COc1cc(N2C[C@@H](C)N(C(=O)Nc3cc(F)c(N4CCC(CN5CCN(c6ccc7c(c6)C(=O)N(C6CCC(=O)NC6=O)C7=O)CC5)CC4)cc3F)C[C@@H]2C)ccc1C#N (stereo partly drawn) [Compound 1-29, (2R,5S)-4-(4-cyano-3-methoxyphenyl)-N-(4-(4-((4-(2-(2,6-dioxopiperidin-3-yl)-1,3-dioxoisoindolin-5-yl)piperazin-1-yl)methyl)piperidin-1-yl)-2,5-difluorophenyl)-2,5-dimethylpiperazine-1-carboxamide]	–	≤ 10 nM	≤ 10 nM
C[C@@H]1CN(c2ccc(C#N)c(C(F)(F)F)c2)[C@@H](C)CN1C(=O)Nc1ccc(N2CCC(CN3CCN(c4ccc5c(c4)C(=O)N(C4CCC(=O)NC4=O)C5=O)CC3)CC2)nc1 (stereo partly drawn) [Compound 1-30, (2R,5S)-4-(4-cyano-3-(trifluoromethyl)phenyl)-N-(6-(4-((4-(2-(2,6-dioxopiperidin-3-yl)-1,3-dioxoisoindolin-5-yl)piperazin-1-yl)methyl)piperidin-1-yl)pyridin-3-yl)-2,5-dimethylpiperazine-1-carboxamide]	–	≤ 10 nM	≤ 10 nM
C[C@@H]1CN(c2ccc(C#N)c(C(F)(F)F)c2)[C@@H](C)CN1C(=O)Nc1cnc(N2CCC(CN3CCN(c4ccc5c(c4)C(=O)N(C4CCC(=O)NC4=O)C5=O)CC3)CC2)nc1 (stereo partly drawn) [Compound 1-31, (2R,5S)-4-(4-cyano-3-(trifluoromethyl)phenyl)-N-(2-(4-((4-(2-(2,6-dioxopiperidin-3-yl)-1,3-dioxoisoindolin-5-yl)piperazin-1-yl)methyl)piperidin-1-yl)pyrimidin-5-yl)-2,5-dimethylpiperazine-1-carboxamide]	–	≤ 10 nM	≤ 10 nM
C[C@@H]1CN(c2ccc(C#N)c(C(F)(F)F)c2)[C@@H](C)CN1C(=O)Nc1ccc(N2CCC(CN3CCN(c4ccc5c(c4)CN([C@H]4CCC(=O)NC4=O)C5=O)CC3)CC2)nc1 [Compound 1-43, (2R,5S)-4-(4-cyano-3-(trifluoromethyl)phenyl)-N-(6-(4-((4-(2-((S)-2,6-dioxopiperidin-3-yl)-1-oxoisoindolin-5-yl)piperazin-1-yl)methyl)piperidin-1-yl)pyridin-3-yl)-2,5-dimethylpiperazine-1-carboxamide]	≤ 10 nM	≤ 10 nM	≤ 10 nM
(2R,5S)-4-(4-cyano-3-methoxyphenyl)-N-(4-(4-((4-(2-((S)-2,6-dioxopiperidin-3-yl)-1-oxoisoindolin-5-yl)piperazin-1-yl)methyl)piperidin-1-yl)-3-fluorophenyl)-2,5-dimethylpiperazine-1-carboxamide [Compound 1-53]	≤ 10 nM	≤ 10 nM	≤ 10 nM
